Test results: US20070009965A1, “Novel method for screening for GPCR agonists and/or antagonists from herbs” (Advanced Gene Technology, Corp., priority 2004, published 2007)

Biological target: MC5R (Homo sapiens, UniProt P33032)
Assay: herbal chip hybridization with MC5R and Cy3-anti-MC5R, fluorescence imaging
Assay type: binding
Settings: at least 25 ng/ml NDP-MSH spotted on coated slide; at least 25 μg/ml MC5R; at least 5 μg/ml Cy3-anti-MC5R; laser scanner
Experimental: A coated plastic slide (1) having active epoxy groups on its surface was prepared in accordance with the method disclosed in the Paragraph entitled “Pretreatment of the Plastic Slide and Preparation of the Coated Plastic Slide” under the Example section of U.S. Pat. No. 6,645,719 B2.
In a dark room, under room temperature, at least 25 μg/ml of MC3R, MC4R and MC5R were individually added to the slides (2), and the resultant slides (3) were allowed to stand for 1 hour for completing hybridization. The slides (3) were washed with 1× TBST buffer (50 mM Tris, pH 7.3, 0.15 M NaCl and 0.02% Tween 20) and Milli-Q water, and then dried in an incubator at 37° C.
Also in the dark room, under room temperature, at least 5 μg/ml of Cy3-anti-MC3R, Cy3-anti-MC4R and Cy3-anti-MC5R were respectively added to the slides (3), each containing said bound MC3R, MC4R or MC5R. The resultant slides (4) were allowed to stand for 1 hour for completing the specific MCXR-anti-MCXR binding, and were then washed with 1× TBST buffer (50 mM Tris, pH 7.3, 0.15 M NaCl and 0.02% Tween 20) and Milli-Q water, and dried in an incubator at 37° C.

Chain of MC5R (P33032 whole entry, species assumed): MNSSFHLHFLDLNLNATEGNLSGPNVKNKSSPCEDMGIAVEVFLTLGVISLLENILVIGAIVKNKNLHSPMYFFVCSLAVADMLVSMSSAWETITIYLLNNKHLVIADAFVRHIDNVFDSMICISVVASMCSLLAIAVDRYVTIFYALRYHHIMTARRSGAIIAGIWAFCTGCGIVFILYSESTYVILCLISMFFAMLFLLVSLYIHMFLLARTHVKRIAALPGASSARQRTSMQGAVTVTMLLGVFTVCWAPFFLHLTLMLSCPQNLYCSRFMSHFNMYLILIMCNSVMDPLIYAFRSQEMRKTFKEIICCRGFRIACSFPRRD

- Mean of Fluorescence Intensity (M): 722.50
Substance: NH2-Ser-Thr-Ser-Nle-Glu-His-D-Phe-Arg-Trp-Gly-Lys-Pro-Val-OH [NDP-MSH]
